{
  "source": "patent US20110009332A1",
  "about": "“Therapeutic Treatment Of Wounds” (SOUTHWEST RESEARCH INSTITUTE, priority 2009, published 2011)",
  "test_system": "rat skin",
  "assay": "Tensile strength of rat skin after 28 days of treatment (Example 2)",
  "assay_type": "in vivo, rats",
  "set-up": "Tensile strength of rat skin, Mean: unit not given here",
  "conditions": "for Tensile strength of rat skin, individual samples: 100 μl per wound site daily for 5 days, samples 1-5, in N/mm²; for Tensile strength of rat skin, individual samples / Tensile strength of rat skin, Mean: after 28 days; for Tensile strength of rat skin, Mean: control mean 3.12114",
  "procedure": "Testing of PS-1 was performed in rats and was provided at 1% and 5% in DMSO. The rats received 100 μl per wound site. The compound was administered daily for 5 days and skin was collected at 7 days, 14 days and 28 days. The biomechanical tensile strength of the skin was measured. Table 2 illustrates the testing data after 28 days for a control sample without treatment, 1% PS-1 in DMSO and 5% PS-1 in DMSO.",
  "note": "Values joined by “and” are separate entries in the source; they are usually repeats but may differ in a detail not shown here. Identical values can stand only once. Where a SMILES comes first, the peptide text is derived from it. The star is where a group is joined. Cbz = O=C(OCc1ccccc1)*; OtBu = CC(C)(C)O*",
  "data": [
    {"smiles": "CC[C@H](C)[C@H](NC(=O)OCc1ccccc1)C(=O)N[C@@H](CCC(=O)OC(C)(C)C)C(=O)N[C@@H](C)C(=O)N[C@H](C=O)CC(C)C", "note": "[PS-1, Z-Ile-Glu(OBu^t)-Ala-Leu-H] (Cbz-IE(OtBu)AL-aldehyde)", "values": [
      {"measurement": "Tensile strength of rat skin, individual samples", "setting": "1% PS-1 in DMSO", "value": "3.707 and 3.47 and 3.655 and 4.169 and 4.476"},
      {"measurement": "Tensile strength of rat skin, Mean", "setting": "1% PS-1 in DMSO", "value": 3.895},
      {"measurement": "Tensile strength of rat skin, individual samples", "setting": "5% PS-1 in DMSO", "value": "4.067 and 4.379 and 3.805 and 5.042 and 5.192"},
      {"measurement": "strength of rat skin tissue (in words)", "setting": "5% PS-1 in DMSO, 28 days, FIG. 6", "value": "relatively stronger tissue"},
      {"measurement": "Tensile strength of rat skin, Mean", "setting": "5% PS-1 in DMSO", "value": 4.497}
    ]}
  ]
}
